Experimental data as given in the supplement of paper PMC10307832.

Tests used:
Assay in all cases: relative viability (nuclei count vs DMSO), 5 days (fraction); higher = more cells survive
Pemetrexed + Trametinib = compound: Nc1nc2[nH]cc(CCc3ccc(C(=O)N[C@@H](CCC(=O)O)C(=O)O)cc3)c2c(=O)[nH]1 [Pemetrexed] + CC(=O)Nc1cccc(-n2c(=O)n(C3CC3)c(=O)c3c(Nc4ccc(I)cc4F)n(C)c(=O)c(C)c32)c1 [Trametinib] (partner 0.02 µM)
In short: (§1)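 After 5 days of treatment, lung cancer cells in 1536-well plates were fixed and stained in a single step (final 0.05% Triton X-100, 1% formaldehyde, 1 ug/ml Hoechst) and their nuclei counted on 4× images. Treatment had been applied by pin tool the day after seeding as one drug alone or as a fixed anchor-drug dose with five library-drug doses (not always all listed) in √10 steps. Relative viability is the nuclei count of treated wells divided by that of vehicle wells, and values are medians of duplicate plates.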

Pemetrexed + OSI-027 = compound: Nc1nc2[nH]cc(CCc3ccc(C(=O)N[C@@H](CCC(=O)O)C(=O)O)cc3)c2c(=O)[nH]1 [Pemetrexed] + COc1cccc2cc(-c3nc([C@H]4CC[C@H](C(=O)O)CC4)n4ncnc(N)c34)[nH]c12 [OSI-027] (partner 0.5 µM)
In short: as §1

Pemetrexed + Crizotinib = compound: Nc1nc2[nH]cc(CCc3ccc(C(=O)N[C@@H](CCC(=O)O)C(=O)O)cc3)c2c(=O)[nH]1 [Pemetrexed] + C[C@@H](Oc1cc(-c2cnn(C3CCNCC3)c2)cnc1N)c1c(Cl)ccc(F)c1Cl [Crizotinib] (partner 1 µM)
In short: as §1

Pemetrexed + Olaparib = compound: Nc1nc2[nH]cc(CCc3ccc(C(=O)N[C@@H](CCC(=O)O)C(=O)O)cc3)c2c(=O)[nH]1 [Pemetrexed] + O=C(c1cc(Cc2n[nH]c(=O)c3ccccc23)ccc1F)N1CCN(C(=O)C2CC2)CC1 [Olaparib] (partner 8 µM)
In short: as §1

| Cell Line | relative viability (Pemetrexed + Trametinib; first compound 0.002 µM) | relative viability (Pemetrexed + Trametinib; first compound 0.006325 µM) | relative viability (Pemetrexed + Trametinib; first compound 0.02 µM) | relative viability (Pemetrexed + Trametinib; first compound 0.06325 µM) | relative viability (Pemetrexed + Trametinib; first compound 0.2 µM) | relative viability (Pemetrexed + OSI-027; first compound 0.002 µM) | relative viability (Pemetrexed + OSI-027; first compound 0.006325 µM) | relative viability (Pemetrexed + OSI-027; first compound 0.02 µM) | relative viability (Pemetrexed + OSI-027; first compound 0.06325 µM) | relative viability (Pemetrexed + OSI-027; first compound 0.2 µM) | relative viability (Pemetrexed + Crizotinib; first compound 0.002 µM) | relative viability (Pemetrexed + Crizotinib; first compound 0.006325 µM) | relative viability (Pemetrexed + Crizotinib; first compound 0.02 µM) | relative viability (Pemetrexed + Crizotinib; first compound 0.06325 µM) | relative viability (Pemetrexed + Crizotinib; first compound 0.2 µM) | relative viability (Pemetrexed + Olaparib; first compound 0.002 µM) | relative viability (Pemetrexed + Olaparib; first compound 0.006325 µM) | relative viability (Pemetrexed + Olaparib; first compound 0.02 µM) | relative viability (Pemetrexed + Olaparib; first compound 0.06325 µM) | relative viability (Pemetrexed + Olaparib; first compound 0.2 µM) |
| --- | --- | --- | --- | --- | --- | --- | --- | --- | --- | --- | --- | --- | --- | --- | --- | --- | --- | --- | --- | --- |
| NCI-H1993 | 0.457 | 0.439 | 0.551 | 0.522 | 0.549 | 0.609 | 0.524 | 0.503 | 0.504 | 0.585 | 0.877 | 0.878 | 0.894 | 0.879 | 0.982 | 0.885 | 1.02 | 1.21 | 1.06 | 0.798 |
| NCI-H1650 | 0.496 | 0.534 | 0.6 | 0.296 | 0.229 | 0.674 | 0.531 | 0.714 | 0.356 | 0.304 | 0.971 | 0.902 | 0.939 | 0.689 | 0.332 | 0.676 | 0.93 | 0.887 | 0.758 | 0.345 |
| NCI-H460 | – | 0.0664 | 0.241 | 0.0967 | 0.0451 | 0.57 | 0.51 | 0.824 | 0.374 | 0.0473 | 0.842 | 0.794 | 1.02 | 0.197 | 0.0567 | 0.237 | 0.35 | 0.484 | 0.437 | 0.116 |
| NCI-H1651 | 0.857 | 0.783 | 0.821 | 0.827 | 0.786 | 0.61 | 0.66 | 0.805 | 0.624 | 0.717 | 0.879 | 0.792 | 0.92 | 0.864 | 0.851 | 0.175 | 0.191 | 0.205 | 0.193 | 0.184 |
| NCI-H1975 | 0.277 | 0.408 | 0.323 | 0.329 | 0.237 | 0.528 | 0.681 | 0.873 | 0.557 | 0.394 | – | 0.879 | 0.987 | 0.806 | 0.438 | 0.645 | 0.748 | 0.765 | 0.677 | 0.323 |
| NCI-H2126 | 0.55 | 0.522 | 0.591 | 0.567 | 0.533 | 0.601 | 0.805 | 0.808 | 0.796 | 0.691 | 0.967 | 0.96 | 1.02 | 1.03 | 0.965 | 0.861 | 0.965 | 0.886 | 0.889 | 0.777 |
| 201T | 0.745 | 0.713 | 0.706 | 0.735 | 0.724 | 0.748 | 0.739 | 0.748 | 0.617 | 0.406 | 0.941 | 1.03 | 1.05 | 1.07 | 0.999 | 0.791 | 0.85 | 0.841 | 0.878 | 0.839 |
| HCC-78 | – | 0.671 | 0.676 | 0.382 | 0.356 | 0.326 | 0.354 | 0.395 | 0.336 | 0.293 | – | 0.304 | 0.337 | 0.25 | 0.197 | – | 0.792 | 0.662 | 0.29 | 0.233 |
